Test results reported in patent US11845828B2, “Polymerizable composition for optical material, optical material, and producing method thereof” (Mitsui Chemicals, Inc., priority 2016, dated 2023).

Test: pKa value (acid dissociation index) of compound (A)

pKa	Structure (SMILES)
2.84	Clc1cccnc1 [Example A3, 3-chloropyridine]
6.6	Cc1cccc(C)n1 [Example A5, 2,6-lutidine]
7.48	Cc1cc(C)nc(C)c1 [Example A6, 2,4,6-trimethylpyridine]
8.35	CCCCCCCCN(CCCCCCCC)CCCCCCCC [Example A7, trioctylamine]
